Measured values published in patent publication US9649350B2, “Use for dendropanax morbifera extract for adjusting 15- hydroxyprostaglandin dehydrogenase and PGE 2 activity” (INDUSTRY-ACADEMIC COOPERATION FOUNDATION, CHOSUN UNIVERSITY, priority 2012, dated 2017).

Columns and labels:
ICR mice [1] = test: In vivo wound healing, 5 mm circular wound, H&E tissue staining; settings: TGF-β1 20 ng/day
Protocol: To confirm the wound healing effect of Dendropanax morbifera extract of the present invention in vivo, following experiments were conducted. First, 7 week old male ICR mice (average weight: 25 g) were purchased from Damul Science Co. (Daejuen, Korea) and after a week of adjustment period, they were anesthetized by administering anesthetic (zoletil, 50 μL) into the abdominal cavity and then circular wound with diameter of 5 mm was made under anesthesia. From a day later, being divided into 4 groups, wound of each group was treated with drugs daily basis as below while 10 μL of drugs were applied to wound of each group and the degree of healing was observed by tissue staining Animal experiments conducted in the examples were approved by Chonnam National University animal experiment ethics committee (IRB) (CNU IACUC-YB-R-2012-12) and tissue staining was done by fragmenting the wounded tissue of mice on which the above experiment of 4 groups was conducted and stained with hemtoxylin-Eosin (H & E). The distance of recovered wound was measured by visualizing stained tissues with microscope (40×). Moreover, the wound healing efficiency was calculated based on the distance measured.

HaCaT cells = test: In vitro scratch analysis in HaCaT cells; assay type: cell-based, human; settings: scratch model with 15-PGDH and its coenzyme NAD+
Protocol: For in vitro scratch analysis (Hintermann et al., 2001; Koivisto et al., 2006), HaCaT cells were seeded 3×10^5 cells per well on 6-well plates and cultured until 80% confluence was reached. Then, culture medium was replaced with serum-free medium containing mitomycin (10 μg/mL) and cells were cultured for 2 hours to block the proliferation of wound and washed with PBS. Scratch was made by sterilized 200 μL pipette tip and washed again.
The process of wound healing was observed by taking photographs of identical spots before and after the culture. Experiment was repeated for 3 times and representative photos were illustrated Immediately after the formation of scratch, photos of scratch were taken by microscope (×100) and 48 hours after the culture, photos were taken once more. By measuring the distance between scratch, the % recovery rate by drug was calculated in comparison with the negative control group.
In the meantime, in order to investigate whether PGE2 is directly involved in scratch healing, 15-PGDH and its coenzyme NAD^+ were treated in identical model system.

ICR mice [2] = test: In vivo gastric ulcer prevention, HCl/ethanol-induced gastric lesion; settings: oral, 24 h and 1 h before HCl/ethanol; DMHE 0.87 mg/kg, sucralfate 100 mg/kg
From the text: To investigate the prevention effect of Dendropanax morbifera for gastric ulcer, […] male ICR mice with weight of 20±2 g were used. The mice above were purchased from Damul Science Co. (Daejuen, Korea). Animal experiments conducted in the examples were approved by Chonnam National University animal experiment ethics committee (IRB) (CNU IACUC-YB-R-2012-11).
The above-described animals were divided into 3 groups (for each group, n=7) that comprise normal group (vehicle 0.5% CMC (carboxyl methylcellulose)), positive control group (sucralfate, 100 mg/kg in 0.5% CMC) and experimental group (Dendropanax morbifera leaf hexane extract in 0.5% CMC).
Balanced diet was provided to the animals and they were allowed to drink water freely. One week later, animals were forced to fast for all day long. 24 hours before inducing the […] bleeding, Dendropanax morbifera hexane extract (DMHE, dissolved in 0.5% CMC) was administered with oral dose of 0.87 mg/kg and administered once more 1 hour before HCl/ethanol was applied. It was conducted for the negative (0.5% CMC, 1 mL/kg) and positive control group (sucralfate, 100 mg/kg in 0.5% CMC) simultaneously. By administering HCl/ethanol mixture containing 150 mM HCl in 60% ethanol into stomach, gastric lesion of hemorrhage was induced. […]

Row | Substance | distance between wound (ICR mice [1]; 4th day after drug treatment) [mm] | % of healing compared to initial wound diameter (5 mm) (ICR mice [1]; 4th day) [%] | wound healing effect on treatment with 15-PGDH and NAD+ (HaCaT cells) | gastric lesion (bleeding, edema) (ICR mice [2])
1 | TGF-β1: transforming growth factor β1, a cytokine; positive control for wound healing | 1.72 | 65.6 | completely vanished | 
2 | sucralfate |  |  |  | have not shown any type of lesion
